Our source for the IC50 and melting point values is patent US6576614B1, “Peptide analogs as irreversible interleukin-1β protease inhibitors” (Vertex Pharmaceuticals Incorporated, priority 1993, dated 2003).

The IC50 is the concentration needed to halve the response being measured. By melting point is commonly meant the temperature, or range, at which the solid turns liquid.

Series [1] concerns mature IL-1β release from human monocytes. Put plainly: Release of mature IL-1β from human monocytes (pulse chase assay). Format: cell-based. The note with it: inhibition of release of mature IL-1β; human monocytes activated with fixed S. aureus; 2-3 donors; read-out: in vivo IC50. Here is the method: Compounds of the present invention were tested for their ability to block mature IL-1β release from cells (monocytes) as described in the following protocol:
Protocol for Monitoring Release of Mature IL-1β-From Human Monocytes
Human monocytes were isolated from heparinized leukopheresis units obtained through Biological Specialty Corporation (Lansdale, Pa.). Monocytes were purified by Ficoll-Hupaque (Pharmacia Fine Chemicals, Piscataway, N.J.) gradient centrifugation and more than 95% pure monocyte populations obtained by centrifugal elutriation. The assay was performed on duplicate samples of freshly isolated human monocytes, cultured in suspension at 37° C. and rotated gently in conical bottom polypropylene tubes (Sardstedt Inc., Princeton, N.J.). Human monocytes at a concentration of 5×10^6 cells/mL were resuspended in 1 mL of RPMI 1640 (a common tissue buffer from M.A. Bioproducts, Walkersyille, Md.) containing 1% fetal calf serum (FCS) (HyClone, Logan, Utah) and 50 μg/mL gentamycin (Gibco, Grand Island, N.Y.). The cells were treated either with a compound of the invention (i.e. test compound) or with a non-inhibitor (control compound, typically 0.03% DMSO) for 15 minutes and then activated with 0.01% fixed Staphylococcus aureus (The Enzyme Center, Malden, Mass.) for 1 hour. The cells were then centrifuged and resuspended in 1 mL of cysteine, methionine-free RPMI media containing 1% dialyzed FCS (Hyclone). The cells were pretreated with a test compound or control compound for 15 minutes after which 0.01% fixed S. aureus plus 100 μCi Tran 35-S label (ICN, Irvine, Calif.) was added and the cells incubated at 37° C. for 1 hour. After incubation, cells were centrifuged, washed once in phosphate buffer saline and resuspended in 1 ML RPMI containing 1% fetal calf serum The cells were again pretreated with a test or control compound for 15 minutes and then 0.01% S. aureus for 2 hours. At the end of the incubation, cells were centrifuged and supernates saved for immunoprecipitation. Cells were washed once in phosphate buffer saline and then lysed in RIPA, a continuous cell media buffer containing 2 mM phenylmethylsulfonyl fluoride, 10 mM iodoacetate, 1 μg/mL pepstatin A, 1 μg/mL leupeptin and 0.5 TIU aprotinin.
For the immunoprecipitations, an equal volume of 1% dry milk in RIPA buffer plus 50 μL of resuspended protein A sepharose CL-4B (Pharmacia, Piscataway, N.Y.) was added to supernates and 1 mL of 4% dry milk containing protein A sepharose CL-4B to cell lysates and samples rotated for 30 minutes at 4° C. Beads were then centrifuged down, samples transferred to fresh tubes and incubated overnight with 40 μg rabbit antihuman IL1B polyclonal antibody (Genzyme, Cambridge, Mass.). The IL-1β proteins were then precipitated with 70 μL protein A sepharose, resuspended in 60 μL SDS sample buffer and run on 15% […] gels. Autoradiography was performed on dried gels and the amount of radioactivity (counts per minute, cpm) quantitated using a Betascope 603 analyzer.
In the monocyte pulse chase assay, each test parameter was run in duplicate. Data was collected from the Beta Scope using a personal computer, then transferred to the VAX system for calculation of mean cpm and standard deviation of the mean. When test compounds were evaluated, the percent inhibition of release of mature IL1β was calculated as follows:
100×[1−(cells treated with stimuli+test compound−unstimulated cells)/(cells teed with stimuli+control compound−unstimulated cells)]
These % inhibition values were then used to calculate IC50 value for each compound. Since the human monocyte pulse chase assay uses primary cells from different donors, each test compound was run in 2-3 separate experiments, using monocytes from 2-3 different donors.

The target of a further series is T1, IL-1β protease (Homo sapiens, UniProt P29466).
T1 construct: Partially purified IL-1β protease is stored at −80° C
T1 sequence (P29466 120-297 limits assumed): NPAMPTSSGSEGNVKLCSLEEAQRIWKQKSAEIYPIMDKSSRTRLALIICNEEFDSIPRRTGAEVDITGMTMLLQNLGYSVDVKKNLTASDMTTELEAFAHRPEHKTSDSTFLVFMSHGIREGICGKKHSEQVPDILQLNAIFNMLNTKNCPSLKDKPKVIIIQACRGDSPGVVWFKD
T1 sequence (P29466 317-404 limits assumed): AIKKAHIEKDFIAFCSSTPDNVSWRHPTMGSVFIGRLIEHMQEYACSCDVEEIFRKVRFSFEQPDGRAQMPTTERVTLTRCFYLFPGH
The series is described as follows: IL-1β protease inhibition activity (HPLC assay, substrate TRITC-AYVHDAPVRS-NH2). Format: biochemical. The note with it: partially purified IL-1β protease; 15 min preincubation with inhibitor at 37° C., 60 min reaction. As for the experimental part:
Compounds of the present invention were tested for IL-1β protease inhibition activity according to the following protocol:
Partially purified IL-1β protease is stored at −80° C., thawed on ice, and preincubated for 10 minutes at 37° C. with 2.5 mM dithiothreitol in a buffer solution containing 10 mM Tris-HCl (pH 8.0) and 25% (v/w) glycerol. Inhibitors are prepared as stock solutions in dimethyl sulfoxide (DMSO). The protease is preincubated with inhibitor in a volume of […] in a 1.5 ml polypropylene microcentrifuge tube for 15 minutes at 37° C. The volume of compound added to the assay is adjusted to yield a DMSO concentration in the preincubation of <15% (v/v). The enzyme assay is then initiated by the addition of substrate (TRITC-AYVHDAPVRS-NH2) to yield a final concentration of […] in a final volume of […]. The reaction are carried out for 60 minutes at 37° C. in the dark and are terminated by the addition of […] of 10% trifluoroacetic acid (TFA). Following the addition of […] of 0.1% TFA, the samples are analyzed by high pressure liquid chromatography using a reverse phase (C18) column and elution with an acetonitrile/water/FA gradient. Substrate and product are monitored by their absorbance at 550 nm and elute at 4.2 and 5.2 minutes, respectively.

Take `O=C(O)C[C@H](NC(=O)OCc1ccccc1)C(=O)COC(=O)c1c(Cl)cccc1Cl` [Example 38, N-benzyloxycarbonyl-L-aspartic acid 2,6-dichlorobenzoyloxymethyl ketone]: the results for the IC50 (in series [1]; on IL-1β protease) were 10000 nM and 50 nM, respectively.
`O=C(O)C[C@H](NC(=O)OCc1ccccc1)C(=O)COC(=O)c1c(C(F)(F)F)cccc1C(F)(F)F` [Example 40, N-Benzyloxycarbonyl-L-aspartic acid 2,6-ditrifluoromethyl benzoyloxymethyl ketone] registered an IC50 against IL-1β protease of 100 nM.
Regarding `O=C(O)C[C@H](NC(=O)OCc1ccccc1)C(=O)COc1c(Cl)cccc1Cl` [Example 41, N-Benzyloxycarbonyl-L-aspartic acid 2,6 dichlorophenoxymethyl ketone], at IL-1β protease, the IC50 is 100 nM.
Compound `O=C(O)C[C@H](NC(=O)OCc1ccccc1)C(=O)COc1ccc(S(=O)(=O)N2CCOCC2)cc1F` [Example 42, N-Benzyloxycarbonyl-L-aspartic acid 2-fluoro-4-(N-morpholinylsulfonamido)phenoxymethyl ketone] showed a melting point of 65 to 66 °C. This compound yielded an IC50 against IL-1β protease of 320 nM.
As to `COc1cccc(OC)c1C(=O)OCC(=O)[C@H](CC(=O)O)NC(=O)OCc1ccccc1` [Example 45, N-Benzyloxycarbonyl-L-aspartic acid 2,6-dimethoxybenzoyloxy methyl ketone], in series [1], the IC50 was roughly 100000 nM.
Regarding `O=C(O)C[C@H](NC(=O)OCc1ccccc1)C(=O)COC(=O)c1c(F)cccc1F` [Example 48, N-Benzyloxycarbonyl-L-aspartic acid 2,6-difluorobenzoyloxymethyl ketone], in series [1], the IC50 was roughly 100000 nM.
Turning to `CCCCNS(=O)(=O)c1ccc(Cl)c(C(=O)OCC(=O)[C@H](CC(=O)O)NC(=O)OCc2ccccc2)c1Cl` [Example 49, N-Benzyloxycarbonyl-L-aspartic acid 3-(N-butylsulfonamido)-2,6-dichlorobenzoyloxymethyl ketone], the melting point lay within 48 to 50 °C. The IC50 at IL-1β protease was found to be 90 nM.
On the same counts, the results for `NC(=O)CNS(=O)(=O)c1ccc(Cl)c(C(=O)OCC(=O)[C@H](CC(=O)O)NC(=O)OCc2ccccc2)c1Cl` [Example 52, N-Benzyloxycarbonyl-L-aspartic acid 3-(N-[2-aminoacetamidoyl]sulfonamido)-2,6-dichlorobenzoyloxymethyl ketone] are 54 to 56 °C and 60 nM.
The compound `O=C(O)C[C@H](NC(=O)OCc1ccccc1)C(=O)COC(=O)c1c(Cl)ccc(S(=O)(=O)N2CCOCC2)c1Cl` [Example 53, N-Benzyloxycarbonyl-L-aspartic acid 2,6-dichloro-3-(N-morpholinylsulfonamido)benzoyloxymethyl ketone] showed an IC50 at IL-1β protease of 90 nM.
On the same count and under the same terms, the value for `COC(=O)N[C@@H](C)C(=O)N[C@@H](CC(=O)O)C(=O)COC(=O)c1c(Cl)cccc1Cl` [Example 54, N-Methoxycarbonyl-L-alanine-L-aspartic acid 2,6-dichlorobenzoyloxymethyl ketone] was 60 nM; that for `COC(=O)N[C@@H](Cc1ccccc1)C(=O)N[C@@H](CC(=O)O)C(=O)COC(=O)c1c(Cl)cccc1Cl` [Example 57, N-Methoxycarbonyl-L-phenylalanine-L-aspartic acid 2,6-dichlorobenzoyloxymethyl ketone] was 70 nM.
As to `CC(C)[C@H](NC(=O)OCc1ccccc1)C(=O)N[C@@H](CC(=O)O)C(=O)COC(=O)c1c(Cl)cccc1Cl` [Example 61, N-Benzyloxycarbonyl-L-valine-L-aspartic acid 2,6-dichlorobenzoyloxy-methyl ketone], the IC50 in series [1] was 900 nM.
Still for that read-out and setting: as for `CC(C)[C@H](NC(=O)OCc1ccccc1)C(=O)N[C@@H](C)C(=O)N[C@@H](CC(=O)O)C(=O)COC(=O)c1c(Cl)cccc1Cl` [Example 63, N-Benzyloxycarbonyl-L-valine-L-alanine-L-aspartic acid 2,6-di-chlorobenzoyloxymethyl ketone], the figure is 500 nM.
`O=C(O)C[C@H](NC(=O)c1ccco1)C(=O)COC(=O)c1c(Cl)cccc1Cl` [Example 64, N-(2-Furonyl)carbonyl-L-aspartic acid 2,6-dichlorobenzoyloxymethyl ketone]: on IL-1β protease, it took 140 nM to reach half-maximal inhibition (IC50).
In the case of `O=C(O)C[C@H](NC(=O)c1ccco1)C(=O)COC(=O)c1c(Cl)ccc(S(=O)(=O)N2CCOCC2)c1Cl` [Example 65, N-(2-Furonyl)carbonyl-L-aspartic acid 2,6-dichloro-3-(N-morpholinylsulfonamido)benzoyloxymethyl ketone], in series [1], the IC50 amounted to 30000 nM.
`CN(C)Cc1ccc(C(=O)N[C@@H](CC(=O)O)C(=O)COC(=O)c2c(Cl)cccc2Cl)cc1` [Example 68, N-(4-N,N-dimethylaminomethyl)benzoyl-L-aspartic acid 2,6-dichlorobenzoyloxymethyl ketone] gave a melting point of 55 to 57 °C. At IL-1β protease, this compound yielded an IC50 of 300 nM.
On to `O=C(O)C[C@@H](NC(=O)OCc1ccccc1)C(=O)COC(=O)c1c(Cl)cccc1Cl` [Example 69, N-Benzyloxycarbonyl-D-aspartic acid 2,6-dichlorobenzoyloxymethyl ketone], for which the IC50 in series [1] came out at 10000 nM.
Take `O=C(O)C[C@H](NC(=O)COC(=O)c1c(Cl)cccc1Cl)C(=O)COC(=O)c1c(Cl)cccc1Cl` [Example 70]: the IC50 on IL-1β protease was 200 nM.
For `CCN(CC)S(=O)(=O)c1c(F)c(F)c(OCC(=O)[C@H](CC(=O)O)NC(=O)[C@@H](NC(=O)OCc2ccccc2)C(C)C)c(F)c1F` [Example 71, N-Benzyloxycarbonyl-L-valine-L-aspartic acid 4-(N,N-diethyl-sulfonamido)-2,3,5,6-tetrafluorophenoxymethyl ketone], in series [1], the 50% inhibitory concentration (IC50) amounted to 5000 nM.
On IL-1β protease, “N-Methoxycarbonyl-L-aspartic acid 2,6-dichlorobenzoyloxymethyl ketone [Example 67]” registered an IC50 of 80 nM.
As for “N-Methoxycarbonyl-L-valine-L-aspartic acid 2,6-dichlorobenzoyloxy-methyl ketone [Example 59]”, the IC50 in series [1] was determined as 10000 nM.
